Among the data in ChEMBL document CHEMBL1201862, “PubChem BioAssay data set” (2004) are IC50, AC50 and EC50 values, retold here.

Activity calls are given as the source filed them.

What is called IC50 is the midpoint of a concentration-inhibition curve. What is called AC50 is the midpoint of the concentration-response curve, whichever way the signal moves. A word on the EC50: it is the concentration giving half of the maximal effect.

Assay [1] can be described thus: Luminescence-based dose response cell-based high throughput screening assay for cytotoxic compounds using the IEC-6 intestinal epithelial cell line. [Related pubchem assays: 1858 (Summary AID.), 1825 (Counterscreen.), 1907 (Confirmation screen.)]. In kind it is functional. In general terms: The purpose of a counterscreen is to sort out artefacts and off-target activity.

The target in a further assay is Prothrombin (Homo sapiens, UniProt P00734). Put plainly: Thrombin 1536 HTS Dose Response Confirmation. [Related pubchem assays: 1046 (Thrombin 1536 HTS; hits were confirmed in this assay)]. In kind it is functional.
A short description of assay [2]: reduced cellular PGC1a acetyl-lysine signal – cell-based, cherry-picked samples, dose response (AID 720514).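 Further: potency may reflect raised or lowered acetylation signal.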 The format is functional.
The target in assay [3] is T1, COUP transcription factor 2 (Homo sapiens, UniProt P24468).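 Further: HEK293 cells transiently cotransfected with COUP-TFII expression vector and reporter; luciferase reporter luminescence driven by COUP-TFII from the pX2-168 reporter plasmid.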
T1 sequence (P24468 whole entry): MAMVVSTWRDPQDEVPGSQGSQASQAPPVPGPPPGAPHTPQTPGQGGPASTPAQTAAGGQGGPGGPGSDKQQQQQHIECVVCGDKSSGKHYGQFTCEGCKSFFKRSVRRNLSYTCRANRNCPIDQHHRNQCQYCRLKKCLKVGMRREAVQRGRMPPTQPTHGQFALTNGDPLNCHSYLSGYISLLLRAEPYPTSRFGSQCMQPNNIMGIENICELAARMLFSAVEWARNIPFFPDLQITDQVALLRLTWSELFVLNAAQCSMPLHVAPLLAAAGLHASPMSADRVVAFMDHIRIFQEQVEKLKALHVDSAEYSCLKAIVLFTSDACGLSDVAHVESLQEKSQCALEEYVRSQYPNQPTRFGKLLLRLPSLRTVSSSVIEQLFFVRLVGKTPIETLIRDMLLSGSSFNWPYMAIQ
As to the kind of experiment: Luminescence-based cell-based high throughput dose response assay to identify inhibitors of COUP-TFII (NR2F2). In kind it is functional.

Assay [4] concerns HEK293. Put plainly: cells. The conditions noted are these: Homo sapiens. The format is functional, cell-based.
Assay [5] is described as follows: reduction of Shn3 3'UTR-driven luciferase in osteoblasts – cell-based, Clone20 osteoblasts, firefly luciferase, cherry-picked, dose response (AID 624132).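 Further: firefly luciferase luminescence from reporter carrying the Shn3 3'UTR in osteoblasts.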 In kind it is functional.
The target of assay [6] is T2, Nucleotide-binding oligomerization domain-containing protein 1 (Homo sapiens, UniProt Q9Y239).
T2 sequence (Q9Y239 whole entry): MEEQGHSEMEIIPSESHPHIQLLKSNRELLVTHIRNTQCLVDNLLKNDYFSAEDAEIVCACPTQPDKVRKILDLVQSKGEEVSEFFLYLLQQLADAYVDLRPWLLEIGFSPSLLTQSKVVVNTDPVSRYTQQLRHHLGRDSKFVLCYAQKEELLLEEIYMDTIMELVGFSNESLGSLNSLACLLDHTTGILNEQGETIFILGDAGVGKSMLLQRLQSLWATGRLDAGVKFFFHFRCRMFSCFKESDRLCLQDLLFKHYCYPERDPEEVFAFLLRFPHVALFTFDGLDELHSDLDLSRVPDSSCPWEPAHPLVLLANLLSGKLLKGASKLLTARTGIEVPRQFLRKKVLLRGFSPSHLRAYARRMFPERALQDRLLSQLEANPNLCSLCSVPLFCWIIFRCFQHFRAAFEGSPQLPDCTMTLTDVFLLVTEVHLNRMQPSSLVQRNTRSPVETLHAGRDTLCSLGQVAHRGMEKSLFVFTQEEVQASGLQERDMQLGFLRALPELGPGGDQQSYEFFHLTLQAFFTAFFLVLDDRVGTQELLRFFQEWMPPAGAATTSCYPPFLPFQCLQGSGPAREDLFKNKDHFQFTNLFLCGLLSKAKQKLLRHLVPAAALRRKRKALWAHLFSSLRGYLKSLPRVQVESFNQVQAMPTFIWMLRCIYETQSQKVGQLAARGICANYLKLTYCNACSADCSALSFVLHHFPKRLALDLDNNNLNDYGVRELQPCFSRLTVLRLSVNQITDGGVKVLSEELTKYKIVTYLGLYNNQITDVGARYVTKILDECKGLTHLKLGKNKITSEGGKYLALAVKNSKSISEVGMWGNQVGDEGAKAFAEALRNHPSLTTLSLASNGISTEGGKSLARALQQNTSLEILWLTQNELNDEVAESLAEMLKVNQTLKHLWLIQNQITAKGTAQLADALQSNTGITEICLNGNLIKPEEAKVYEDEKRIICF
As to the kind of experiment: blockers of NOD1 pathway activity – revised, SAR follow-up (AID 2333). In kind it is functional.

The nature of assay [7]: non-specific 3'UTR reporter inhibition in Clone20-Shn3RL – cell-based, Renilla luciferase, cherry-picked, counter-screen for Shn3 inhibitor project, dose response (AID 624133). In kind it is functional.
Assay [8] concerns HEK293. As to the kind of experiment: cells. The conditions noted are these: Homo sapiens.
The subject of assay [9] is HEK293. Put plainly: inhibition of NOD1-driven NF-kB reporter – cell-based, luminescence, uHTS, primary screen (AID 1578). The conditions noted are these: Homo sapiens. In kind it is functional.
A further assay deals with INS1. Put plainly: INS-1E survival protection against cytokine death – cell-based, luminescence, retest, dose response (AID 449756).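 Further: cell death triggered by IL-1 beta plus TNF-alpha plus IFN-gamma mixture; protective hits raise ATP signal compared with cytokine alone wells.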 In kind it is functional. The conditions noted are these: Rattus norvegicus.
For the next assay, the target named is Tumor necrosis factor (Homo sapiens, UniProt P01375). As to the kind of experiment: analog potency on TNFa NF-kB signaling – cell-based, revised, SAR follow-up (AID 2337). In kind it is functional.
Assay [10] concerns HEK293. Put plainly: cells. The conditions noted are these: Homo sapiens. In kind it is functional, cell-based. The source holds these as a separate data set.
Assay [11] relates to HEK293. As to the kind of experiment: NOD2 signaling inhibitors in MDP-stimulated cells, cell-based, uHTS, luminescence (AID 2001). In kind it is functional. The conditions noted are these: Homo sapiens.

Sequence of Tumor necrosis factor (P01375 whole entry): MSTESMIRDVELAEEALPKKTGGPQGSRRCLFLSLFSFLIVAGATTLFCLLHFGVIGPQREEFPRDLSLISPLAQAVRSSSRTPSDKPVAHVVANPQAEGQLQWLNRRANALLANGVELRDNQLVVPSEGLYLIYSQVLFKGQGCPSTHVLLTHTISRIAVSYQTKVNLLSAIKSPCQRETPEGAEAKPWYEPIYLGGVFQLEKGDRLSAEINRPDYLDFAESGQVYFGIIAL

For the compound `CN1CCC(NCCC(c2ccc(F)cc2)c2ccc(Cl)cc2)CC1` (stereo unspecified), in [1], the IC50 was 5340 nM (active).

Turning to `COc1cccc(-c2nnc(SCC(=O)Nc3ccc4c(c3)OCCO4)n2Cc2ccco2)c1`, at Prothrombin, the IC50 was > 50000 nM (not active).

In the case of `COc1cccc(-n2c(Cc3cc(O)nc(O)n3)nnc2SCc2cccc(C(F)(F)F)c2)c1`, in assay [2], the AC50 is 35100 nM (active).

In the case of `CC(=O)c1sc2ccccc2c1OC(=O)c1ccco1`, the IC50 on Prothrombin was 2170 nM (active).

On to `Cc1cc(C(=O)NC2CCCc3c2cnn3-c2cccc(C)c2C)n(C)n1` (stereo unspecified), for which the 50% inhibitory concentration (IC50) in [3] was 628 nM (active); in the assay on HEK293 [4] it was 922 nM (active); in [6], 289 nM (active); with HEK293 [8], > 20000 nM (inactive); on Tumor necrosis factor, 703 nM (active); in the assay on HEK293 [10], > 20000 nM (inactive). Further, the IC50 in the assay with HEK293 [11] is 609 nM (inactive). In addition, the AC50 in assay [5] is < 260 nM (active); in [7] it was < 260 nM (active); with INS1 it was 216 nM (active). Moreover, the EC50 in the assay with HEK293 [9] was 170 nM (active).

Regarding `O=C(COc1ccc(S(=O)(=O)Nc2ccccc2)cc1)N1CCOCC1`, at Prothrombin, the IC50 is > 50000 nM (not active).
